Experimental findings from patent US20160200789A1, “IL4 CONJUGATED TO ANTIBODIES AGAINST EXTRACELLULAR MATRIX COMPONENTS” (PHILOGEN S.P.A., priority 2013, published 2016) are described below.

For one test, the system named is Fibrosarcoma Wehi-164. Nature of the test: Therapy of Wehi-164 fibrosarcoma-bearing mice. The format is in vivo, mouse. The following applies: 4 cycles i.v. every 48 h, equimolar doses. The procedure:
Fibrosarcoma Wehi-164 exponentially growing cells were harvested, repeatedly washed and re-suspended in serum-free medium prior to injection. The tumor cells were injected subcutaneously (5×10^6) in the right flank of Balb/c mice. Tumor weights (mg=mm^3) were calculated as follows: (length [mm]×width^2 [mm^2])/2.
Treatment started when tumors reached approximately 100 mg. Mice received 4 cycles of therapy, every 48 h starting from day 5 after tumor cell injection. L19-IL4 (SEQ ID NO:64) was administered i.v. at the dose of 130 μg/mouse; equimolar amounts of KSF-IL4 (130 μg/mouse) (SEQ ID NO:44), KSF-IL10 (150 μg/mouse) (SEQ ID NO:65) and L19-IL10 (150 μg/mouse) (SEQ ID NO:66) were administered. Control mice received sterile vehicle solution (PBS). The results are shown in FIG. 16 (mean tumour weight over time). The number of mice in each treatment group was 3-4.

A further test concerns CTLL2 cells. The experiment in a line: CTLL2 cell proliferation bioactivity assay. The format is cell-based. The following applies: CTLL2 cells, 20000 cells/well, 24 h. The procedure:
The biological activity of murine IL4 was determined by its ability to stimulate the proliferation of CTLL2 cells. […] After incubation at 37° C. for 24 h, cell proliferation was determined with Cell Titer Aqueous One Solution (Promega).

A further test has as its system F9 teratocarcinoma. The experiment in a line: Therapy studies in F9 teratocarcinoma-bearing mice. It counts as in vivo, mouse. The following applies: mouse, in vivo. As to the method:
In a dose finding study, F9 tumour-bearing mice were randomly grouped (n=5) and injected intravenously (i.v.) into the lateral tail vein when tumours were clearly palpable. […] The therapeutic antibodies were all dissolved in phosphate buffered saline (PBS) and this buffer was also used in the negative control treatment groups. The mice were monitored daily and tumour volume was measured with a calliper (volume=length×width^2×0.5).

Regarding “KSF-IL10: KSF antibody (hen egg lysozyme) conjugated to IL10; untargeted IL10”, in the test on Fibrosarcoma Wehi-164, the “therapeutic activity (tumour weight)” value is on record as “do not promote any significant therapeutic activity”.

One may read the EC50 as the concentration at which the effect is half-maximal. Read a high EC50 as a need for much substance. Consider “recombinant IL4: recombinant murine IL4 (eBioscience)”, for which, in the test on CTLL2 cells, the EC50 came out at 0.028 nM.

B1: L19-IL4: L19 diabody (anti-EDB of fibronectin) fused to murine IL4 (protein)
chain: EVQLLESGGGLVQPGGSLRLSCAASGFTFSSFSMSWVRQAPGKGLEWVSSISGSSGTTYYADSVKGRFTISRDNSKNTLYLQMNSLRAEDTAVYYCAKPFPYFDYWGQGTLVTVSSGGSGGEIVLTQSPGTLSLSPGERATLSCRASQSVSSSFLAWYQQKPGQAPRLLIYYASSRATGIPDRFSGSGSGTDFTLTISRLEPEDFAVYYCQQTGRIPPTFGQGTKVEIKSSSSGSSSSGSSSSGHIHGCDKNHLREIIGILNEVTGEGTPCTEMDVPNVLTATKNTTESELVCRASKVLRIFYLKHGKTPCLKKNSSVLMELQRLFRAFRCLDSSISCTMNESKSTSLKDFLESLKSIMQMDYS
modifications: Synthetic sequence Amino acid sequence of the L19-murine IL4 conjugate of PCT/EP2014/053998
B1: in the test with Fibrosarcoma Wehi-164, the “therapeutic activity (tumour weight)” value is “shows therapeutic activity”.

B2: F8-IL12: IL12-based immunocytokine: murine IL12 fused to single chain F8 diabody (protein)
chain: MWELEKDVYVVEVDWTPDAPGETVNLTCDTPEEDDITWTSDQRHGVIGSGKTLTITVKEFLDAGQYTCHKGGETLSHSHLLLHKKENGIWSTEILKNFKNKTFLKCEAPNYSGRFTCSWLVQRNMDLKFNIKSSSSSPDSRAVTCGMASLSAEKVTLDQRDYEKYSVSCQEDVTCPTAEETLPIELALEARQQNKYENYSTSFFIRDIIKPDPPKNLQMKPLKNSQVEVSWEYPDSWSTPHSYFSLKFFVRIQRKKEKMKETEEGCNQKGAFLVEKTSTEVQCKGGNVCVQAQDRYYNSSCSKWACVPCRVRSGGGGSGGGGSGGGGSRVIPVSGPARCLSQSRNLLKTTDDMVKTAREKLKHYSCTAEDIDHEDITRDQTSTLKTCLPLELHKNESCLATRETSSTTRGSCLPPQKTSLMMTLCLGSIYEDLKMYQTEFQAINAALQNHNHQQIILDKGMLVAIDELMQSLNHNGETLRQKPPVGEADPYRVKMKLCILLHAFSTRVVTINRVMGYLSSAGSADGGEVQLLESGGGLVQPGGSLRLSCAASGFTFSLFTMSWVRQAPGKGLEWVSAISGSGGSTYYADSVKGRFTISRDNSKNTLYLQMNSLRAEDTAVYYCAKSTHLYLFDYWGQGTLVTVSSGGSGGEIVLTQSPGTLSLSPGERATLSCRASQSVSMPFLAWYQQKPGQAPRLLIYGASSRATGIPDRFSGSGSGTDFTLTISRLEPEDFAVYYCQQMRGRPPTFGQGTKVEIKSSSSGSSSSGSSSSGEVQLLESGGGLVQPGGSLRLSCAASGFTFSLFTMSWVRQAPGKGLEWVSAISGSGGSTYYADSVKGRFTISRDNSKNTLYLQMNSLRAEDTAVYYCAKSTHLYLFDYWGQGTLVTVSSGGSGGEIVLTQSPGTLSLSPGERATLSCRASQSVSMPFLAWYQQKPGQAPRLLIYGASSRATGIPDRFSGSGSGTDFTLTISRLEPEDFAVYYCQQMRGRPPTFGQGTKVEIK
modifications: Synthetic sequence Amino acid sequence of (murine)IL12-F8-F8 of PCT/EP2014/053998
notes: IL12-based immunocytokine: murine IL12 fused to single chain F8 diabody
Take B2: the single-agent therapeutic activity result in the test with F9 teratocarcinoma is recorded as “potent single-agent therapeutic activity”.
